Experimental data reported in ChEMBL document CHEMBL3228009, “Hypobetalipoproteinemic agents. 2. Compounds related to 4-(1-adamantyloxy)aniline” (J Med Chem, 1979).

Tests used:
Rattus norvegicus [1] = assay: Hypobetalipoproteinemic activity in diet-induced hypercholesteremic rat model assessed as decrease in total serum cholesterol at 50 mg/kg, po relative to control; format: functional
Rattus norvegicus [2] = assay: Hypobetalipoproteinemic activity in diet-induced hypercholesteremic rat model assessed as decrease in heparin precipitating lipoproteins at 50 mg/kg, po relative to control; format: functional
Rattus norvegicus [3] = species on record: Rattus norvegicus; assay: Selectivity ratio of T/C for heparin precipitating lipoproteins to T/C for total serum cholesterol in diet-induced hypercholesteremic rat model; format: functional
Rattus norvegicus [4] = assay: Toxicity in diet-induced hypercholesteremic rat model assessed as increase in body weight at 50 mg/kg, po relative to control; format: organism-based; parameters: dose 50 mg/kg, route oral; conditions: in vivo
Rattus norvegicus [5] = assay: Toxicity in diet-induced hypercholesteremic rat model assessed as increase in food intake at 50 mg/kg, po relative to control; format: organism-based; parameters: dose 50 mg/kg, route oral; conditions: in vivo

SMILES	T/C (Rattus norvegicus [1])	T/C (Rattus norvegicus [2])	Selectivity ratio (Rattus norvegicus [3])	Activity (Rattus norvegicus [4])	Activity (Rattus norvegicus [5])
OC12CC3CC(CC(C3)C1)C2	0.94	0.98	1.04	> 63%	> 73%
Nc1ccc(OC23CCC(CC2)CC3)cc1	0.8	0.72	0.9	> 63%	> 73%
Nc1ccc(OC23CC4CC(CC(C4)C2)C3)cc1	0.54	0.35	0.65	> 63%	> 73%
O=CNc1ccc(OC23CC4CC(CC(C4)C2)C3)cc1	0.71	0.78	1.09	> 63%	> 73%
CCOC(=O)Nc1ccc(OC23CC4CC(CC(C4)C2)C3)cc1	0.57	0.42	0.74	> 63%	> 73%
CC(=O)Nc1ccc(OC23CC4CC(CC(C4)C2)C3)cc1	0.66	0.5	0.76	> 63%	> 73%
CS(=O)(=O)Nc1ccc(OC23CC4CC(CC(C4)C2)C3)cc1	1.51	1.3	0.85	> 63%	> 73%
CNC(=O)Nc1ccc(OC23CC4CC(CC(C4)C2)C3)cc1	1.06	0.96	0.91	> 63%	> 73%
O=C(Nc1ccccc1)Nc1ccc(OC23CC4CC(CC(C4)C2)C3)cc1	1.18	1.23	1.05	> 63%	> 73%
S=C(Nc1ccc(OC23CC4CC(CC(C4)C2)C3)cc1)NC12CC3CC(CC(C3)C1)C2	0.88	0.91	1.03	> 63%	> 73%
CNc1ccc(OC23CC4CC(CC(C4)C2)C3)cc1.Cl	0.52	0.32	0.63	> 63%	> 73%
CCNc1ccc(OC23CC4CC(CC(C4)C2)C3)cc1.Cl	0.49	0.36	0.72	> 63%	> 73%
c1cc(N2CCCC2)ccc1OC12CC3CC(CC(C3)C1)C2	0.65	0.52	0.8	> 63%	> 73%
c1cc(N2CCCCC2)ccc1OC12CC3CC(CC(C3)C1)C2	0.44	0.25	0.58	> 63%	> 73%
c1cc(N2CCOCC2)ccc1OC12CC3CC(CC(C3)C1)C2	0.92	0.87	0.94	> 63%	> 73%
C#CCN(C)c1ccc(OC23CC4CC(CC(C4)C2)C3)cc1.Cl	0.57	0.6	1.05	> 63%	> 73%
CN(CCO)c1ccc(OC23CC4CC(CC(C4)C2)C3)cc1	0.63	0.55	0.88	> 63%	> 73%
CN(CCN1CCCC1)c1ccc(OC23CC4CC(CC(C4)C2)C3)cc1.Cl	1.26	1.22	0.97	> 63%	> 73%
CN(C)CCCN(C)c1ccc(OC23CC4CC(CC(C4)C2)C3)cc1.Cl	0.98	0.99	1.01	> 63%	> 73%
CN(C=O)c1ccc(OC23CC4CC(CC(C4)C2)C3)cc1	0.51	0.36	0.72	> 63%	> 73%
CN(C)c1ccc(OC23CC4CC(CC(C4)C2)C3)cc1.Cl	0.46	0.34	0.73	> 63%	> 73%
CN(CCc1ccccc1)c1ccc(OC23CC4CC(CC(C4)C2)C3)cc1.Cl	1.09	1.07	0.98	> 63%	> 73%
CN(CCOc1ccccc1)c1ccc(OC23CC4CC(CC(C4)C2)C3)cc1	1.03	1.06	1.03	> 63%	> 73%
CCCCCCCCN(C)c1ccc(OC23CC4CC(CC(C4)C2)C3)cc1.Cl	1.15	1.04	0.91	> 63%	> 73%

SMILES	T/C (Rattus norvegicus [1])	T/C (Rattus norvegicus [2])	Selectivity ratio (Rattus norvegicus [3])	Activity (Rattus norvegicus [4])	Activity (Rattus norvegicus [5])
Cc1cc(N)ccc1OC12CC3CC(CC(C3)C1)C2.Cl	0.52	0.31	0.6	< 63%	> 73%
Nc1ccc(OC23CC4CC(CC(C4)C2)C3)c(F)c1	0.57	0.52	0.92	> 63%	> 73%
CC(=O)Nc1ccc(OC23CC4CC(CC(C4)C2)C3)c(F)c1	1.15	1.07	0.93	> 63%	> 73%
Fc1cc(N2CCCC2)ccc1OC12CC3CC(CC(C3)C1)C2	0.8	0.82	1.02	> 63%	> 73%
Nc1ccc(OC23CC4CC(CC(C4)C2)C3)cc1F	0.35	0.24	0.68	> 63%	> 73%
CC(=O)Nc1ccc(OC23CC4CC(CC(C4)C2)C3)cc1F	0.62	0.35	0.55	> 63%	> 73%
Fc1cc(OC23CC4CC(CC(C4)C2)C3)ccc1N1CCCC1	0.58	0.3	0.51	> 63%	> 73%
Cl.Nc1ccc(OC23CC4CC(CC(C4)C2)C3)c(Cl)c1	0.63	0.43	0.68	> 63%	> 73%
Clc1cc(N2CCCC2)ccc1OC12CC3CC(CC(C3)C1)C2	1.08	1.07	0.98	> 63%	> 73%
Cc1cc(N)cc(C)c1OC12CC3CC(CC(C3)C1)C2.Cl	0.86	0.8	0.93	> 63%	> 73%
Cc1cc(N2CCCC2)cc(C)c1OC12CC3CC(CC(C3)C1)C2	0.81	0.78	0.96	> 63%	> 73%
CSCc1cc(OC23CC4CC(CC(C4)C2)C3)ccc1N	0.49	0.38	0.76	> 63%	> 73%
Cc1cc(OC23CC4CC(CC(C4)C2)C3)ccc1N	0.64	0.25	0.38	< 63%	< 73%
CSCc1cc(OC23CC4CC(CC(C4)C2)C3)cc(C)c1N	0.88	0.85	0.96	> 63%	> 73%
Cc1cc(OC23CC4CC(CC(C4)C2)C3)cc(C)c1N	0.77	0.72	0.93	> 63%	> 73%
Cc1cc(OC23CC4CC(CC(C4)C2)C3)cc(C)c1N1CCCC1	1.18	1.28	1.08	> 63%	> 73%
Cl.Nc1ccc(C23CC4CC(CC(C4)C2)C3)cc1	1.41	1.4	0.99	> 63%	> 73%
c1cc(C23CC4CC(CC(C4)C2)C3)ccc1N1CCCC1	1.17	0.9	0.77	> 63%	> 73%
Cl.Nc1ccc(CC23CC4CC(CC(C4)C2)C3)cc1	0.45	0.23	0.5	> 63%	> 73%
CNc1ccc(CC23CC4CC(CC(C4)C2)C3)cc1.Cl	0.55	0.45	0.82	> 63%	> 73%
c1cc(N2CCCC2)ccc1CC12CC3CC(CC(C3)C1)C2	0.82	0.87	1.06	> 63%	> 73%
Cl.Nc1ccccc1CC12CC3CC(CC(C3)C1)C2	0.86	0.89	1.03	> 63%	> 73%
c1ccc(N2CCCC2)c(CC23CC4CC(CC(C4)C2)C3)c1	1.39	1.4	1.01	> 63%	> 73%
CN(c1ccc(N)cc1)C12CC3CC(CC(C3)C1)C2.Cl	0.84	0.82	0.98	< 63%	< 73%
